Measured values as given in the CheMixHub ionic liquid set.

Test: xn = mol fraction of the nth substance listed
Details: 100 kPa

CCCCCCCC[n+]1ccccc1.[Br-] + O
Details	electrical conductivity [S/m]
288.15 K, x1 = 0.0006303	0.31
288.15 K, x1 = 0.001206	0.47
288.15 K, x1 = 0.001745	0.62
288.15 K, x1 = 0.002301	0.78
288.15 K, x1 = 0.00309	0.98
288.15 K, x1 = 0.003806	1.12
288.15 K, x1 = 0.004431	1.22
288.15 K, x1 = 0.005002	1.29
288.15 K, x1 = 0.005537	1.35
288.15 K, x1 = 0.006018	1.4
288.15 K, x1 = 0.006445	1.44
288.15 K, x1 = 0.006854	1.48
288.15 K, x1 = 0.007227	1.51
288.15 K, x1 = 0.007547	1.54
293.15 K, x1 = 0.0006303	0.34
293.15 K, x1 = 0.001206	0.54
293.15 K, x1 = 0.001745	0.7
293.15 K, x1 = 0.002301	0.88
293.15 K, x1 = 0.00309	1.11
293.15 K, x1 = 0.003788	1.27
293.15 K, x1 = 0.004431	1.39
293.15 K, x1 = 0.005002	1.47
293.15 K, x1 = 0.00552	1.54
293.15 K, x1 = 0.006	1.59
293.15 K, x1 = 0.006445	1.65
293.15 K, x1 = 0.006837	1.69
293.15 K, x1 = 0.00721	1.73
293.15 K, x1 = 0.007547	1.76
298.15 K, x1 = 0.0006303	0.38
298.15 K, x1 = 0.001206	0.6
298.15 K, x1 = 0.001745	0.79
298.15 K, x1 = 0.002301	0.99
298.15 K, x1 = 0.00309	1.25
298.15 K, x1 = 0.003788	1.43
298.15 K, x1 = 0.004431	1.57
298.15 K, x1 = 0.005002	1.67
298.15 K, x1 = 0.00552	1.75
298.15 K, x1 = 0.006	1.81
298.15 K, x1 = 0.006428	1.87
298.15 K, x1 = 0.006837	1.93
298.15 K, x1 = 0.00721	1.98
298.15 K, x1 = 0.007529	2.02
303.15 K, x1 = 0.0006303	0.45
303.15 K, x1 = 0.001206	0.67
303.15 K, x1 = 0.001745	0.88
303.15 K, x1 = 0.002301	1.1
303.15 K, x1 = 0.00309	1.39
303.15 K, x1 = 0.003788	1.6
303.15 K, x1 = 0.004413	1.75
303.15 K, x1 = 0.004985	1.87
303.15 K, x1 = 0.005502	1.98
303.15 K, x1 = 0.005983	2.07
303.15 K, x1 = 0.006428	2.14
303.15 K, x1 = 0.006819	2.21
303.15 K, x1 = 0.007192	2.27
303.15 K, x1 = 0.007529	2.32
308.15 K, x1 = 0.0006303	0.48
308.15 K, x1 = 0.001206	0.73
308.15 K, x1 = 0.001745	0.97
308.15 K, x1 = 0.002283	1.21
308.15 K, x1 = 0.003072	1.54
308.15 K, x1 = 0.00377	1.77
308.15 K, x1 = 0.004413	1.98
308.15 K, x1 = 0.004985	2.13
308.15 K, x1 = 0.005502	2.23
308.15 K, x1 = 0.005983	2.33
308.15 K, x1 = 0.00641	2.42
308.15 K, x1 = 0.006819	2.49
308.15 K, x1 = 0.007192	2.56
308.15 K, x1 = 0.007512	2.62

CCCCn1cc[n+](C)c1C.C[C@@H](O)[C@H](N)C(=O)[O-] + O
Details	viscosity [mPa·s]
288.15 K, x1 = 0.4927	331
293.15 K, x1 = 0.2985	102
293.15 K, x1 = 0.7003	447
298.15 K, x1 = 0.7003	307
298.15 K, x1 = 0.8001	402
308.15 K, x1 = 0.1919	24.8
308.15 K, x1 = 0.4004	63
308.15 K, x1 = 0.599	122
308.15 K, x1 = 0.8001	199
313.15 K, x1 = 0.2985	26.1
313.15 K, x1 = 0.599	78
318.15 K, x1 = 0.2985	21.5
318.15 K, x1 = 0.4004	33.1
318.15 K, x1 = 0.4927	45.9
318.15 K, x1 = 0.7003	77
318.15 K, x1 = 0.8001	92
